Biological target: MEK1-C222 (Homo sapiens, UniProt Q02750, S222C/C277S/C376S)
Experiment: differential scanning fluorimetry
Format: binding
Conditions: thermal shift with and without Mg2+; values only in figure

In the case of `Nc1ncnc2c1ncn2[C@@H]1O[C@H](COP(=O)(O)OP(=O)(O)OP(O)(O)=S)[C@@H](O)[C@H]1O` [ATPγS], the differential scanning fluorimetry is reported as “to form MEK1•ATP(±Mg) and MEK1•ATPγS(±Mg)”.

Reference: article PMC8209957 (Cell, 2021)
